Data reported in patent US20240059703A1 (AMGEN INC., priority 2021, published 2024).

Legend:
[1] = test system: MIA PaCa-2 (human pancreatic carcinoma) cells; assay: Cell Viability Assay (CellTiter-Glo), MIA PaCa-2; assay type: cell-based
Experimental: Serially-diluted compound or DMSO was added to the cells, and plates were incubated at 37° C., 5% CO2 for 72 h. Cell viability was measured using a CellTiter-Glo® Luminescent Cell Viability Assay kit (Promega) according to the manufacturer's protocol. The luminescence signal of treated samples was normalized to DMSO control, and data were analyzed using a 4-parameter logistic model to calculate IC50 values.

[2] = test system: A549 (human lung carcinoma) cells; assay: Cell Viability Assay (CellTiter-Glo), A549; assay type: cell-based
How it was run: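 Luminescent ATP read-out (CellTiter-Glo) after 72 h compound treatment of cells seeded overnight at 1.67E+04 cells/mL in RPMI 1640, 10% FBS; signal relative to DMSO, IC50 by 4-parameter logistic model.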

KRAS G12C = KRAS G12C (Homo sapiens (Human), UniProt P01116, C118A/G12C); assay: 2 h coupled exchange assay; assay type: biochemical; details: Avg 2 h Coupled exchange IC50, 2 h compound pre-incubation
KRAS G12C, sequence (P01116 other isoform, or with tags, fused parts or gaps G12C/C118A): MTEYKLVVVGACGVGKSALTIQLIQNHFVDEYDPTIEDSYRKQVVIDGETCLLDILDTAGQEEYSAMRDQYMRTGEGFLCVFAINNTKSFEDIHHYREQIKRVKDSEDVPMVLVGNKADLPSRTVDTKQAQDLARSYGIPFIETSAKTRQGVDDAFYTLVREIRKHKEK
Experimental: The term “2 h coupled exchange assay” or “20 h coupled exchange assay” as used herein refers to the assay described in the Section entitled “BIOLOGICAL EVALUATION.”

[3] = SOS-mediated nucleotide exchange

Compound	IC50 ([1]; Homo sapiens, MIA PaCa-2, 72 h) [nM]	IC50 ([2]; Homo sapiens, A549, 72 h) [nM]	IC50 (KRAS G12C) [nM]	IC50 ([1]; 72 h) [nM]	IC50 ([2]; 72 h) [nM]	IC50 (KRAS G12C; [3]) [nM]
C=CC(=O)N1CC2(CCN(c3nc4cc(-c5sc(CO)nc5C)cnc4c(-c4ccccc4Cl)c3C#N)C2)C1 [Example 19-9, 4-(2-chlorophenyl)-7-(2-(hydroxymethyl)-4-methyl-1,3-thiazol-5-yl)-2-(2-(2-propenoyl)-2,6-diazaspiro[3.4]octan-6-yl)-1,5-naphthyridine-3-carbonitrile]	204	> 5000	56			
C=CC(=O)N1CC2(CCN(c3nc4cc(-c5scnc5C)ccc4c(-c4ccccc4Cl)c3C#N)C2)C1 [Example 20-1, 4-(2-chlorophenyl)-7-(4-methyl-1,3-thiazol-5-yl)-2-(2-(2-propenoyl)-2,6-diazaspiro[3.4]octan-6-yl)-3-quinolinecarbonitrile]	1560	> 5000	149			
C=CC(=O)N1CC2(CCN(c3nc4cc(-c5scnc5C)ccc4c(-c4ccccc4C)c3C#N)C2)C1 (single isomer, unassigned) [Example 19-12, (M)-4-(2-methylphenyl)-7-(4-methyl-1,3-thiazol-5-yl)-2-(2-(2-propenoyl)-2,6-diazaspiro[3.4]octan-6-yl)-3-quinolinecarbonitrile]			74	1400	3790	
C=CC(=O)N1CC2(CCN(c3nc4c(c(-c5c(C)ccc6cn[nH]c56)n3)CCCC4)C2)C1 [Example 1-16, 1-(6-(4-(6-methyl-1H-indazol-7-yl)-5,6,7,8-tetrahydro-2-quinazolinyl)-2,6-diazaspiro[3.4]octan-2-yl)-2-propen-1-one]	10300	> 25000				6720
C=CC(=O)N1CC2(CCN(c3nc4c(F)cccc4c(-c4c(C)ccc5[nH]ncc45)c3C#N)CC2(F)F)C1 [Example 1-43, 2-(5,5-difluoro-2-(2-propenoyl)-2,7-diazaspiro[3.5]nonan-7-yl)-8-fluoro-4-(5-methyl-1H-indazol-4-yl)-3-quinolinecarbonitrile]	2160	6250				858
C=CC(=O)N1CC2(CCN(c3nc4cc(OC)ccc4c(-c4c(C)ccc5cn[nH]c45)c3C)C2)C1 [Example 2-49, 1-(6-(7-methoxy-3-methyl-4-(6-methyl-1H-indazol-7-yl)-2-quinolinyl)-2,6-diazaspiro[3.4]octan-2-yl)-2-propen-1-one]	1210	> 5000				323
C=CC(=O)N1CC2(CCN(c3nc4c(c(-c5cccc(F)c5O)c3C)CCN(c3scnc3C)C4)C2)C1 [Example 18-21, 1-(6-(4-(3-fluoro-2-hydroxyphenyl)-3-methyl-7-(4-methyl-1,3-thiazol-5-yl)-5,6,7,8-tetrahydro-1,7-naphthyridin-2-yl)-2,6-diazaspiro[3.4]octan-2-yl)-2-propen-1-one]	3370	> 25000	800			
C=CC(=O)N1CC2(CCN(c3nc4c(c(-c5c(C)ccc6[nH]ncc56)c3C#N)CC3CC43)C2)C1 (stereo not drawn) [Example 13-81]	319	> 5000				98
C=CC(=O)N1CC2(CCN(c3nc4cc(OC(C)C)ccc4c(-c4ccccc4Cl)c3C#N)C2)C1 [Example 20-11, 4-(2-chlorophenyl)-7-(2-propanyloxy)-2-(2-(2-propenoyl)-2,6-diazaspiro[3.4]octan-6-yl)-3-quinolinecarbonitrile]	3100	8810	834			
C=CC(=O)N1CC2(CCN(c3nc4cc(-c5scnc5C)ccc4c(-c4cccc(C)c4C)c3C#N)C2)C1 [Example 20-6, 4-(2,3-dimethylphenyl)-7-(4-methyl-1,3-thiazol-5-yl)-2-(2-(2-propenoyl)-2,6-diazaspiro[3.4]octan-6-yl)-3-quinolinecarbonitrile]	1550	> 5000	124			
C=CC(=O)N1CC2(CCN(c3nc4c(c(-c5c(C)ccc6[nH]ncc56)c3C#N)[C@@H]3CC[C@H]4C3)C2)C1 (single isomer, unassigned) [Example 14-7]	6	5570				14
C=CC(=O)N1CC2(CCN(c3nc4c(c(-c5ccccc5C)c3C#N)CC[C@H](c3scnc3C)C4)C2)C1 (single isomer, unassigned) [Example 23-6]			128	3420	13000	
C=CC(=O)N1CC2(CCN(c3nc4c(c(-c5c(C)ccc6[nH]ncc56)c3C)CCN(C3CC3)C4)C2)C1 [Example 18-16, 1-(6-(7-cyclopropyl-3-methyl-4-(5-methyl-1H-indazol-4-yl)-5,6,7,8-tetrahydro-1,7-naphthyridin-2-yl)-2,6-diazaspiro[3.4]octan-2-yl)-2-propen-1-one]	188	> 5000	355			
C=CC(=O)N1CC2(CCN(c3nc4c(c(-c5c(C)ccc6[nH]ncc56)c3C#N)CC(C3CC3)C4)C2)C1 [Example 13-83, (6R)-6-cyclopropyl-4-(5-methyl-1H-indazol-4-yl)-2-(2-(2-propenoyl)-2,6-diazaspiro[3.4]octan-6-yl)-6,7-dihydro-5H-cyclopenta[b]pyridine-3-carbonitrile|(6S)-6-cyclopropyl-4-(5-methyl-1H-indazol-4-yl)-2-(2-(2-propenoyl)-2,6-diazaspiro[3.4]octan-6-yl)-6,7-dihydro-5H-cyclopenta[b]pyridine-3-carbonitrile]	> 5000	> 5000				86
C=CC(=O)N1CC2(CCN(c3nc4c(c(-c5cccc6sc(N)nc56)n3)CCCC4)C2)C1 [Example 1-23, 1-(6-(4-(2-amino-1,3-benzothiazol-4-yl)-5,6,7,8-tetrahydro-2-quinazolinyl)-2,6-diazaspiro[3,4]octan-2-yl)-2-propen-1-one]	5270	10500				1220
C=CC(=O)N1CC2(CCN(c3nc4c(c(-c5c(C)c(Cl)cc6cnn(C)c56)c3C#N)COC(C)(C)C4)C2)C1 [Example 14-92, 4-(5-chloro-1,6-dimethyl-1H-indazol-7-yl)-7,7-dimethyl-2-(2-(2-propenoyl)-2,6-diazaspiro[3.4]octan-6-yl)-7,8-dihydro-5H-pyrano[4,3-b]pyridine-3-carbonitrile]	9	> 5000	28			
C=CC(=O)N1CC2(CCN(c3nc4c(c(-c5cccc6cc(O)ccc56)c3C)COC(C)(C)C4)C2)C1 [Example 14-43, 1-(6-(4-(6-hydroxy-1-naphthalenyl)-3,7,7-trimethyl-7,8-dihydro-5H-pyrano[4,3-b]pyridin-2-yl)-2,6-diazaspiro[3.4]octan-2-yl)-2-propen-1-one]	136	> 5000	110			
C=CC(=O)N1CC2(CCN(c3nc4c(c(-c5c(O)cccc5F)c3C#N)CCC(c3scnc3C)=C4)C2)C1 [Example 23-29, 4-(2-fluoro-6-hydroxyphenyl)-7-(4-methyl-1,3-thiazol-5-yl)-2-(2-(2-propenoyl)-2,6-diazaspiro[3.4]octan-6-yl)-5,6-dihydro-3-quinolinecarbonitrile]	1320	> 5000	48			
C=CC(=O)N1CC2(CCN(c3nc4c(c(-c5cc(O)cc6ccccc56)c3C#N)CC(C)(C)C4)C2)C1 (single isomer, unassigned) [Example 13-69, (P)-4-(3-hydroxy-1-naphthalenyl)-6,6-dimethyl-2-(2-(2-propenoyl)-2,6-diazaspiro[3.4]octan-6-yl)-6,7-dihydro-5H-cyclopenta[b]pyridine-3-carbonitrile]	217	3230				27
C=CC(=O)N1CC2(CCN(c3nc4c(c(-c5ccccc5F)c3C#N)CCN(CC3CCCN3C)C4)C2)C1 [Example 21-29, 4-(2-fluorophenyl)-7-(((2R)-1-methyl-2-pyrrolidinyl)methyl)-2-(2-(2-propenoyl)-2,6-diazaspiro[3.4]octan-6-yl)-5,6,7,8-tetrahydro-1,7-naphthyridine-3-carbonitrile 4-(2-fluorophenyl)-7-(((2S)-1-methyl-2-pyrrolidinyl)methyl)-2-(2-(2-propenoyl)-2,6-diazaspiro[3.4]octan-6-yl)-5,6,7,8-tetrahydro-1,7-naphthyridine-3-carbonitrile]	4410	> 25000	822			
C=CC(=O)N1CC2(CCN(c3nc4c(c(-c5cc(O)ccc5Cl)c3C#N)CCN(c3scnc3C)C4)C2)C1 (single isomer, unassigned) [Example 21-25, (M)-4-(2-chloro-5-hydroxyphenyl)-7-(4-methyl-1,3-thiazol-5-yl)-2-(2-(2-propenoyl)-2,6-diazaspiro[3.4]octan-6-yl)-5,6,7,8-tetrahydro-1,7-naphthyridine-3-carbonitrile]			3260	7400	13400	
C=CC(=O)N1CC2(CCN(c3nc4c(c(-c5c(C)ccc6cnn(C)c56)c3C#N)CO[C@@H](C3CC3)C4)C2)C1 (single isomer, unassigned) [Example 13-122]	1080	> 5000				299
C=CC(=O)N1CC2(CCN(c3nc4c(c(-c5cc(O)cc6ccccc56)c3C#N)C[C@H]3C[C@@H]4C3(C)C)C2)C1 (single isomer, unassigned) [Example 13-129]	21	> 5000				13
